Patent US20220117938A1, “COMBINATON THERAPY WITH A DON PRODRUG AND AN IMMUNE CHECKPOINT INHIBITOR” (DRACEN PHARMACEUTICALS, INC., priority 2019, published 2022)

Test system: MC-38 tumors
Assay: Anti-tumor efficacy of Compound 1 in the subcutaneous MC-38 murine colorectal cancer model: dose response (Example 1)
Format: in vivo, Mus musculus
Conditions: for Tumor volume (mm^3), Mean ± SEM: n = 8; for RTV at day 14 / T/C (%) / TGI (%) / Tumor Size (mm^3) at day 14: day 14; for ILS (%) / MST: endpoint tumor volume 2000 mm^3
Protocol: Female C57BL/6 mice were inoculated subcutaneously at right flank with MC-38 cells for tumor development. Four days after tumor inoculation, 64 mice with tumor size ranging from 50-92 mm^3 (average tumor size 63 mm^3) were selected and assigned into 8 groups using stratified randomization with 8 mice per group based upon their tumor volumes. The treatments were started from the day of randomization (defined as D0), Group 1 was treated with Vehicle (Tween 80:Ethanol:Saline—5:5:90 v/v/v), S.C. QD, Group 2 was treated with Compound 1 (0.1 mg/kg), S.C. QD, Group 3 was treated with Compound 1 (0.3 mg/kg), S.C. QD, Group 4 was treated with Compound 1 (0.5 mg/kg), S.C. QD, Group 5 was treated with Compound 1 (1 mg/kg), S.C. QD, Group 6 was treated with Compound 1 (3 mg/kg), S.C. QD*5 days followed by Compound 1 (1 mg/kg), S.C. QD*9 days (2 cycles), Group 7 was treated with Compound 1 (1 mg/kg), S.C. QD*5 days followed by Compound 1 (0.3 mg/kg), S.C. QD*9 days (2 cycles) and Group 8 was treated with Compound 1 (0.15 mg/kg), S.C. BID. The tumor sizes were measured three times per week during the treatment. The entire study was terminated on D74 after start of the treatment.
Animal Species: Mus musculus; Strain: C57BL/6; Age: 6-8 weeks; Sex: female; Body weight (at treatment start): 17-21 g.
The MC-38 tumor cells were maintained in vitro as a monolayer culture in DMEM medium supplemented with 10% heat inactivated fetal bovine serum and 100 μg/mL penicillin streptomycin at 37° C. in an atmosphere of 5% CO2 in air. The tumor cells were routinely subcultured twice weekly by trypsin-EDTA treatment. The cells growing to a confluency around 70%-80% were harvested and counted for tumor inoculation. The cultured MC-38 were harvested, re-suspended in base medium at a density of 1×10^7 cells/mL with viability>90%. Each mouse was inoculated subcutaneously at the right flank with 1×10^6 in 0.1 ml base medium for tumor development.
The treatments were started on day 4 after tumor inoculation when the tumor size reached 50-92 mm^3 (average tumor size 63 mm^3). Each group consisted of 8 tumor bearing mice. The testing article was administrated at a dosing volume of […] to the mice according to the predetermined regimen shown in Table 1-1. Testing article formulations were prepared according to standard procedures. Details regarding tumor measurements and endpoints, and statistical analysis are provided in EXAMPLE 3.
Tumor sizes were measured three times a week in two dimensions using a caliper, and the volume expressed in mm^3 using the formula: V=0.5 a×b^2 where a and b are the long and short diameters of the tumor, respectively. The tumor sizes were then used for the calculations of both tumor growth inhibition (TGI) and T/C values.
TGI is calculated for each group using the formula: […]
TVTreatment_DayN is the average tumor volume of a treatment group on a given day, TVTreatment_Day0 is the average tumor volume of the treatment group on the first day of treatment, TVVehicle_DayN is the average tumor volume of the vehicle control group on a given day, and TVVehicle_Day0 is the average tumor volume of the vehicle group on the first day of treatment.
The T/C value (in percent) is an indication of antitumor effectiveness, T/C (%)=RTVTreatment/RTVControl×100% (RTVTreatment: the mean RTV of the treatment group; RTVControl: the mean RTV of the vehicle treated group). RTV (relative tumor volume)=TVDayN/TVDay0. TVDayN and TVDay0 is the tumor volume on day N and Day 0 respectively. T/C (%)≤42% is considered as significant antitumor activity and <10% is considered as highly significant antitumor activity by the National Cancer Institute criteria.
Animal survival curve: When an individual animal reached to the termination endpoint (TV>2000 mm^3), the mouse was euthanized. The time from treatment initiation to the termination was deemed as its survival time. Survival curve was plotted by Kaplan-Meier method. Median survival time (MST) was calculated for each group. […]

[1] = 1 & 0.3 mg/kg (1 mg/kg QDx5 then 0.3 mg/kg QDx9 S.C.)
[2] = 3 & 1 mg/kg (3 mg/kg QDx5 then 1 mg/kg QDx9 S.C.)
[3] = Treatment (0.1) mg/kg, last line of the table

CC(=O)N[C@@H](Cc1c[nH]c2ccccc12)C(=O)N[C@@H](CCC(=O)C=[N+]=[N-])C(=O)OC(C)C [Compound 1, Isopropyl (S)-2-((S)-2-acetamido-3-(1H-indol-3-yl)propanamido)-6-diazo-5-oxohexanoate]
Tumor volume (mm^3), Mean ± SEM (0.1 mg/kg S.C. QD, Day 0): 62 ± 4 mm^3
Tumor volume (mm^3), Mean ± SEM (0.1 mg/kg S.C. QD, Day 2): 91 ± 10 mm^3
Tumor volume (mm^3), Mean ± SEM (0.1 mg/kg S.C. QD, Day 4): 112 ± 11 mm^3
Tumor volume (mm^3), Mean ± SEM (0.1 mg/kg S.C. QD, Day 7): 183 ± 32 mm^3
Tumor volume (mm^3), Mean ± SEM (0.1 mg/kg S.C. QD, Day 9): 247 ± 40 mm^3
Tumor volume (mm^3), Mean ± SEM (0.1 mg/kg S.C. QD, Day 11): 368 ± 72 mm^3
Tumor volume (mm^3), Mean ± SEM (0.1 mg/kg S.C. QD, Day 14): 744 ± 154 mm^3
RTV at day 14 (0.1 mg/kg S.C. QD): 12.29 ± 7.63
T/C (%) (0.1 mg/kg S.C. QD): 40.26%
TGI (%) (0.1 mg/kg S.C. QD): 62.52%
Tumor Size (mm^3) at day 14 (0.1 mg/kg S.C. QD): 743.79 ± 153.64 mm^3
ILS (%) (0.1 mg/kg): 22%
MST (0.1 mg/kg): 19.5 days
ILS (%) (0.15 mg/kg (BID)): 88%
MST (0.15 mg/kg (BID)): 30 days
Tumor volume (mm^3), Mean ± SEM (0.15 mg/kg S.C. BID, Day 0): 63 ± 5 mm^3
Tumor volume (mm^3), Mean ± SEM (0.15 mg/kg S.C. BID, Day 2): 87 ± 6 mm^3
Tumor volume (mm^3), Mean ± SEM (0.15 mg/kg S.C. BID, Day 4): 109 ± 6 mm^3
Tumor volume (mm^3), Mean ± SEM (0.15 mg/kg S.C. BID, Day 7): 195 ± 28 mm^3
Tumor volume (mm^3), Mean ± SEM (0.15 mg/kg S.C. BID, Day 9): 237 ± 30 mm^3
Tumor volume (mm^3), Mean ± SEM (0.15 mg/kg S.C. BID, Day 11): 288 ± 43 mm^3
Tumor volume (mm^3), Mean ± SEM (0.15 mg/kg S.C. BID, Day 14): 369 ± 56 mm^3
Tumor volume (mm^3), Mean ± SEM (0.3 mg/kg S.C. QD, Day 0): 62 ± 4 mm^3
Tumor volume (mm^3), Mean ± SEM (0.3 mg/kg S.C. QD, Day 2): 76 ± 5 mm^3
Tumor volume (mm^3), Mean ± SEM (0.3 mg/kg S.C. QD, Day 4): 88 ± 7 mm^3
Tumor volume (mm^3), Mean ± SEM (0.3 mg/kg S.C. QD, Day 7): 110 ± 14 mm^3
Tumor volume (mm^3), Mean ± SEM (0.3 mg/kg S.C. QD, Day 9): 143 ± 26 mm^3
Tumor volume (mm^3), Mean ± SEM (0.3 mg/kg S.C. QD, Day 11): 140 ± 29 mm^3
Tumor volume (mm^3), Mean ± SEM (0.3 mg/kg S.C. QD, Day 14): 235 ± 80 mm^3
RTV at day 14 (0.3 mg/kg S.C. QD): 3.83 ± 3.95
T/C (%) (0.3 mg/kg S.C. QD): 12.54%
TGI (%) (0.3 mg/kg S.C. QD): 90.47%
Tumor Size (mm^3) at day 14 (0.3 mg/kg S.C. QD): 235.18 ± 79.89 mm^3
ILS (%) (0.3 mg/kg): 94%
MST (0.3 mg/kg): 31 days
Tumor volume (mm^3), Mean ± SEM (0.5 mg/kg S.C. QD, Day 0): 63 ± 5 mm^3
Tumor volume (mm^3), Mean ± SEM (0.5 mg/kg S.C. QD, Day 2): 79 ± 4 mm^3
Tumor volume (mm^3), Mean ± SEM (0.5 mg/kg S.C. QD, Day 4): 97 ± 8 mm^3
Tumor volume (mm^3), Mean ± SEM (0.5 mg/kg S.C. QD, Day 7): 112 ± 8 mm^3
Tumor volume (mm^3), Mean ± SEM (0.5 mg/kg S.C. QD, Day 9): 109 ± 7 mm^3
Tumor volume (mm^3), Mean ± SEM (0.5 mg/kg S.C. QD, Day 11): 84 ± 9 mm^3
Tumor volume (mm^3), Mean ± SEM (0.5 mg/kg S.C. QD, Day 14): 97 ± 17 mm^3
RTV at day 14 (0.5 mg/kg S.C. QD): 1.63 ± 0.88
T/C (%) (0.5 mg/kg S.C. QD): 5.33%
TGI (%) (0.5 mg/kg S.C. QD): 98.16%
Tumor Size (mm^3) at day 14 (0.5 mg/kg S.C. QD): 96.6 ± 16.6 mm^3
ILS (%) (0.5 mg/kg): 131%
MST (0.5 mg/kg): 37 days
Tumor volume (mm^3), Mean ± SEM (1 mg/kg QDx5 then 0.3 mg/kg QDx9 S.C., 2 cycles, Day 0): 63 ± 4 mm^3
Tumor volume (mm^3), Mean ± SEM (1 mg/kg QDx5 then 0.3 mg/kg QDx9 S.C., 2 cycles, Day 2): 73 ± 5 mm^3
Tumor volume (mm^3), Mean ± SEM (1 mg/kg QDx5 then 0.3 mg/kg QDx9 S.C., 2 cycles, Day 4): 85 ± 7 mm^3
Tumor volume (mm^3), Mean ± SEM (1 mg/kg QDx5 then 0.3 mg/kg QDx9 S.C., 2 cycles, Day 7): 97 ± 10 mm^3
Tumor volume (mm^3), Mean ± SEM (1 mg/kg QDx5 then 0.3 mg/kg QDx9 S.C., 2 cycles, Day 9): 101 ± 9 mm^3
Tumor volume (mm^3), Mean ± SEM (1 mg/kg QDx5 then 0.3 mg/kg QDx9 S.C., 2 cycles, Day 11): 116 ± 19 mm^3
Tumor volume (mm^3), Mean ± SEM (1 mg/kg QDx5 then 0.3 mg/kg QDx9 S.C., 2 cycles, Day 14): 119 ± 22 mm^3
Tumor volume (mm^3), Mean ± SEM (1 mg/kg S.C. QD, Day 0): 62 ± 4 mm^3
Tumor volume (mm^3), Mean ± SEM (1 mg/kg S.C. QD, Day 2): 74 ± 5 mm^3
Tumor volume (mm^3), Mean ± SEM (1 mg/kg S.C. QD, Day 4): 85 ± 5 mm^3
Tumor volume (mm^3), Mean ± SEM (1 mg/kg S.C. QD, Day 7): 94 ± 5 mm^3
Tumor volume (mm^3), Mean ± SEM (1 mg/kg S.C. QD, Day 9): 100 ± 7 mm^3
Tumor volume (mm^3), Mean ± SEM (1 mg/kg S.C. QD, Day 11): 80 ± 8 mm^3
Tumor volume (mm^3), Mean ± SEM (1 mg/kg S.C. QD, Day 14): 68 ± 12 mm^3
RTV at day 14 (1 mg/kg S.C. QD): 1.13 ± 0.67
T/C (%) (1 mg/kg S.C. QD): 3.71%
TGI (%) (1 mg/kg S.C. QD): 99.69%
Tumor Size (mm^3) at day 14 (1 mg/kg S.C. QD): 68.23 ± 12.12 mm^3
ILS (%) (1 mg/kg, then 0.3 mg/kg): 131%
MST (1 mg/kg, then 0.3 mg/kg): 37 days
ILS (%) (1 mg/kg): 144%
MST (1 mg/kg): 39 days
Tumor volume (mm^3), Mean ± SEM (3 mg/kg QDx5 then 1 mg/kg QDx9 S.C., 2 cycles, Day 0): 63 ± 5 mm^3
Tumor volume (mm^3), Mean ± SEM (3 mg/kg QDx5 then 1 mg/kg QDx9 S.C., 2 cycles, Day 2): 70 ± 3 mm^3
Tumor volume (mm^3), Mean ± SEM (3 mg/kg QDx5 then 1 mg/kg QDx9 S.C., 2 cycles, Day 4): 83 ± 7 mm^3
Tumor volume (mm^3), Mean ± SEM (3 mg/kg QDx5 then 1 mg/kg QDx9 S.C., 2 cycles, Day 7): 87 ± 8 mm^3
Tumor volume (mm^3), Mean ± SEM (3 mg/kg QDx5 then 1 mg/kg QDx9 S.C., 2 cycles, Day 9): 90 ± 6 mm^3
Tumor volume (mm^3), Mean ± SEM (3 mg/kg QDx5 then 1 mg/kg QDx9 S.C., 2 cycles, Day 11): 79 ± 10 mm^3
Tumor volume (mm^3), Mean ± SEM (3 mg/kg QDx5 then 1 mg/kg QDx9 S.C., 2 cycles, Day 14): 43 ± 4 mm^3
ILS (%) (3 mg/kg, then 1 mg/kg): 131%
MST (3 mg/kg, then 1 mg/kg): 37 days
RTV at day 14 [1]: 1.85 ± 0.82
T/C (%) [1]: 6.05%
TGI (%) [1]: 96.95%
Tumor Size (mm^3) at day 14 [1]: 118.69 ± 21.92 mm^3
RTV at day 14 [2]: 0.69 ± 0.16
T/C (%) [2]: 2.27%
TGI (%) [2]: 101.09%
Tumor Size (mm^3) at day 14 [2]: 42.91 ± 3.89 mm^3
RTV at day 14 [3]: 5.99 ± 2.92
T/C (%) [3]: 19.62%
TGI (%) [3]: 83.19%
Tumor Size (mm^3) at day 14 [3]: 369.41 ± 56.37 mm^3
